Experimental data from ChEMBL document CHEMBL4627267, “A novel series of cysteine-dependent, allosteric inverse agonists of the nuclear receptor RORγt” (Bioorg Med Chem Lett, 2020).
Active and inactive are the calls of the source. The calls are words filed in the database; no cut-off is given here.

Experiments:
[1] = target: T1, Nuclear receptor ROR-beta (Homo sapiens) (UniProt Q92753); assay: Inverse agonist activity at human full-length RORbeta expressed in Jurkat cells co-transfected with 5 copies of ROR response element after 18 hrs by luciferase based reporter gene assay; assay type: cell-based
T1 sequence (whole entry): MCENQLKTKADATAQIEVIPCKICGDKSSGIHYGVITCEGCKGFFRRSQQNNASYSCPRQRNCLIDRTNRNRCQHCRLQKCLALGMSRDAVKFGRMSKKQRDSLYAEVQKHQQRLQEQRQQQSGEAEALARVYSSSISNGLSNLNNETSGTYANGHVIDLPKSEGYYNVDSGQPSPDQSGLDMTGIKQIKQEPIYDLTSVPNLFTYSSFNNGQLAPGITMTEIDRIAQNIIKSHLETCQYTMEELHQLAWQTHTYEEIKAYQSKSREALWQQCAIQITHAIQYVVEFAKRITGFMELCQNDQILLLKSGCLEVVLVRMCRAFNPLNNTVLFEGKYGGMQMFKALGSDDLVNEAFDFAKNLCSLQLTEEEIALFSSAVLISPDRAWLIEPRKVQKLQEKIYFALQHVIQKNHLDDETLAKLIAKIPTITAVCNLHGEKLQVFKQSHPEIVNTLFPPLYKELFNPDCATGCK

[2] = target: T2, Nuclear receptor ROR-alpha (Homo sapiens) (UniProt P35398); assay: Inverse agonist activity at human full-length RORalpha expressed in Jurkat cells co-transfected with 5 copies of ROR response element after 18 hrs by luciferase based reporter gene assay; assay type: cell-based
T2 sequence (whole entry): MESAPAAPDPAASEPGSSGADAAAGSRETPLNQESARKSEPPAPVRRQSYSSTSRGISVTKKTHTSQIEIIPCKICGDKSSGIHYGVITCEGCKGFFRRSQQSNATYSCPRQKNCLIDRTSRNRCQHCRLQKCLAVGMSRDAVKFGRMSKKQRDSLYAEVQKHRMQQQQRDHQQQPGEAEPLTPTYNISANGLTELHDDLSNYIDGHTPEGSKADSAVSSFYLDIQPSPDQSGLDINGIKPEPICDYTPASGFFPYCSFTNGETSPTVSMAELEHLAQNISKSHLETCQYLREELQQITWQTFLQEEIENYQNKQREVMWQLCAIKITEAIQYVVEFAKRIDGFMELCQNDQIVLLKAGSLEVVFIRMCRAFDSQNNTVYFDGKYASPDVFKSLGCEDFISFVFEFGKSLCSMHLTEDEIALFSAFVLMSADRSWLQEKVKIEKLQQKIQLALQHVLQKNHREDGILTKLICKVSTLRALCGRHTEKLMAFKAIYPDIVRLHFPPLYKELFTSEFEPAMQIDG

Mus musculus [3] = assay: Antiarthritic activity in collagen/complete freund's adjuvant-induced DBA/1 mouse model of arthritis assessed as reduction in paw thickness at 3 mg/kg/day, po administered via gavage starting from 21 day post collagen/CFA challenge and measured up to 42 days; assay type: functional, organism-based
Mus musculus [4] = assay: Antiarthritic activity in collagen/complete freund's adjuvant-induced DBA/1 mouse model of arthritis assessed as reduction in clinical score at 3 mg/kg/day, po administered via gavage starting from 21 day post collagen/CFA challenge and measured up to 42 days; assay type: functional, organism-based
[5] = Cytotoxicity against human CD4-positive T cells assessed as reduction in cell viability at 100 nM; assay type: cell-based; details: 0.1 µM

Row | Activity [1] | Activity [2] | SMILES | Activity (Mus musculus [3]) | Activity (Mus musculus [4]) | Activity [5] [%]
1 | inactive | inactive | CCC[C@H]1C(=O)C(C#N)=C[C@@]2(C)c3nc(-c4ccnc(C5CC5)c4)nc(-c4ccccc4F)c3CC[C@H]12 |  |  | 
2 | inactive | inactive | Cc1cc(-c2nc(-c3ccc(F)cc3)c3c(n2)[C@]2(C)C=C(C#N)C(=O)[C@H](C)[C@H]2CC3)ccn1 | Active | Active | 10 to 15
